# Results from PubChem BioAssay AID212 (DTP/NCI, 2004).
# “And” between values parts separate entries of the source, which are not always exact repeats. Identical values can stand only once. Inconclusive results are not listed.
# System: BDF1 mice, colon carcinoma 38 sc, T/C %
# Assay: NCI In Vivo Anticancer Drug Screen. Data for tumor model Colon Carcinoma 38 (subcutaneous) in B6D2F1 (BDF1) mice
# Summary of the method: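 Transplantable tumor in mice; compound-treated vs vehicle-dosed controls. Measured survival or tumor size; value = T ÷ C.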
# [1] = endpoint: median tumor weight (est.), dose: 100.0 mg/kg/injection, schedule: Q07DX002 (ip), vehicle: Klucel (hydroxypropylcellulose) (HPC), higher = larger tumour
# [2] = endpoint: median tumor weight (est.), dose: 200.0 mg/kg/injection, schedule: Q07DX002 (ip), vehicle: Klucel (hydroxypropylcellulose) (HPC), higher = larger tumour
# [3] = endpoint: median tumor weight (est.), dose: 12.5 mg/kg/injection, schedule: Q07DX002 (ip), vehicle: saline with Tween-80, higher = larger tumour
# [4] = endpoint: median tumor weight (est.), dose: 50.0 mg/kg/injection, schedule: Q07DX002 (ip), vehicle: saline with Tween-80, higher = larger tumour
# [5] = endpoint: median tumor weight (est.), dose: 200.0 mg/kg/injection, schedule: Q07DX002 (ip), vehicle: saline with Tween-80, higher = larger tumour
# [6] = endpoint: median tumor weight (est.), dose: 400.0 mg/kg/injection, schedule: Q07DX002 (ip), vehicle: saline with Tween-80, higher = larger tumour
# [7] = endpoint: median tumor weight (est.), dose: 100.0 mg/kg/injection, schedule: Q07DX002 (ip), vehicle: saline with Tween-80, higher = larger tumour
structure (smiles),measurement,setting,value
COC1=C(N)C(=O)c2nc(-c3nc(C(=O)O)c(C)c(-c4ccc(OC)c(OC)c4O)c3N)ccc2C1=O,T/C,"endpoint: median tumor weight (est.), dose: 0.05 mg/kg/injection, schedule: Q07DX003 (ip), vehicle: Klucel (hydroxypropylcellulose) (HPC), higher = larger tumour",110 % of control
same,T/C,"endpoint: median tumor weight (est.), dose: 0.1 mg/kg/injection, schedule: Q07DX003 (ip), vehicle: Klucel (hydroxypropylcellulose) (HPC), higher = larger tumour",93 % of control
same,T/C,"endpoint: median tumor weight (est.), dose: 0.2 mg/kg/injection, schedule: Q07DX003 (ip), vehicle: Klucel (hydroxypropylcellulose) (HPC), higher = larger tumour",111 % of control
same,T/C,"endpoint: median tumor weight (est.), dose: 0.4 mg/kg/injection, schedule: Q07DX003 (ip), vehicle: Klucel (hydroxypropylcellulose) (HPC), higher = larger tumour",83 % of control
Cc1ccc2c(ccc(CC(=S)[S-])[n+]2C)c1,T/C,[1],111 % of control and 93 % of control
same,T/C,[2],122 % of control
CCOC(=O)[C@]1(Br)CC[C@@]1(Br)C(=O)OCC,T/C,[3],76 % of control
same,T/C,[4],71 % of control and 75 % of control
same,T/C,[5],78 % of control and 95 % of control and 96 % of control
same,T/C,[6],79 % of control and 80 % of control and 97 % of control
same,T/C,"endpoint: median tumor weight (est.), dose: 800.0 mg/kg/injection, schedule: Q07DX002 (ip), vehicle: saline with Tween-80, higher = larger tumour",113 % of control
CC1(C)OC2C(COC(=O)c3ccc([N+](=O)[O-])cc3)OC(NC(=O)N(CCCl)N=O)C2O1 (stereo not given),T/C,"endpoint: median tumor weight (est.), dose: 6.25 mg/kg/injection, schedule: Q07DX002 (ip), vehicle: saline with Tween-80, higher = larger tumour",62 % of control
same,T/C,[3],112 % of control and 123 % of control
same,T/C,"endpoint: median tumor weight (est.), dose: 12.5 mg/kg/injection, schedule: Q07DX003 (ip), vehicle: saline with Tween-80, higher = larger tumour",106 % of control
same,T/C,"endpoint: median tumor weight (est.), dose: 25.0 mg/kg/injection, schedule: Q07DX002 (ip), vehicle: saline with Tween-80, higher = larger tumour",68 % of control
same,T/C,"endpoint: median tumor weight (est.), dose: 25.0 mg/kg/injection, schedule: Q07DX003 (ip), vehicle: saline with Tween-80, higher = larger tumour",88 % of control
same,T/C,[4],61 % of control and 82 % of control
same,T/C,"endpoint: median tumor weight (est.), dose: 50.0 mg/kg/injection, schedule: Q07DX003 (ip), vehicle: saline with Tween-80, higher = larger tumour",68 % of control
same,T/C,[7],48 % of control and 67 % of control
same,T/C,"endpoint: median tumor weight (est.), dose: 100.0 mg/kg/injection, schedule: Q07DX003 (ip), vehicle: saline with Tween-80, higher = larger tumour",40 % of control
same,T/C,"endpoint: median tumor weight (est.), dose: 200.0 mg/kg/injection, schedule: Q07DX003 (ip), vehicle: saline with Tween-80, higher = larger tumour",4 % of control
CC(C)[C@](O)(C(=O)OCC1=CC[N+]2([O-])CC[C@@H](O)[C@@H]12)[C@H](C)O (stereo not given in full),T/C,"endpoint: median tumor weight (est.), dose: 50.0 mg/kg/injection, schedule: Q07DX003 (ip), vehicle: water, higher = larger tumour",66 % of control
same,T/C,"endpoint: median tumor weight (est.), dose: 100.0 mg/kg/injection, schedule: Q07DX003 (ip), vehicle: water, higher = larger tumour",185 % of control
same,T/C,"endpoint: median tumor weight (est.), dose: 200.0 mg/kg/injection, schedule: Q07DX002 (ip), vehicle: water, higher = larger tumour",73 % of control
same,T/C,"endpoint: median tumor weight (est.), dose: 200.0 mg/kg/injection, schedule: Q07DX003 (ip), vehicle: water, higher = larger tumour",123 % of control
same,T/C,"endpoint: median tumor weight (est.), dose: 400.0 mg/kg/injection, schedule: Q07DX002 (ip), vehicle: water, higher = larger tumour",92 % of control
same,T/C,"endpoint: median tumor weight (est.), dose: 400.0 mg/kg/injection, schedule: Q07DX003 (ip), vehicle: water, higher = larger tumour",71 % of control
same,T/C,"endpoint: median tumor weight (est.), dose: 800.0 mg/kg/injection, schedule: Q07DX002 (ip), vehicle: water, higher = larger tumour",64 % of control
same,T/C,"endpoint: median tumor weight (est.), dose: 800.0 mg/kg/injection, schedule: Q07DX003 (ip), vehicle: water, higher = larger tumour",68 % of control
same,T/C,"endpoint: median tumor weight (est.), dose: 1600.0 mg/kg/injection, schedule: Q07DX002 (ip), vehicle: water, higher = larger tumour",48 % of control
CN1CCN(c2ccc3nc(-c4ccc5nc(-c6ccc(O)cc6)[nH]c5c4)[nH]c3c2)CC1,T/C,"endpoint: median tumor weight (est.), dose: 25.0 mg/kg/injection, schedule: Q07DX002 (ip), vehicle: saline, higher = larger tumour",119 % of control
same,T/C,"endpoint: median tumor weight (est.), dose: 50.0 mg/kg/injection, schedule: Q07DX002 (ip), vehicle: saline, higher = larger tumour",116 % of control
same,T/C,"endpoint: median tumor weight (est.), dose: 100.0 mg/kg/injection, schedule: Q07DX002 (ip), vehicle: saline, higher = larger tumour",70 % of control
same,T/C,"endpoint: median tumor weight (est.), dose: 200.0 mg/kg/injection, schedule: Q07DX002 (ip), vehicle: saline, higher = larger tumour",97 % of control
CC1CC2OC2/C=C\C=C\C(=O)Cc2c(Cl)c(O)cc(O)c2C(=O)O1 (stereo not given),T/C,"endpoint: median tumor weight (est.), dose: 30.0 mg/kg/injection, schedule: Q07DX002 (ip), vehicle: Klucel (hydroxypropylcellulose) (HPC), higher = larger tumour",72 % of control
same,T/C,"endpoint: median tumor weight (est.), dose: 60.0 mg/kg/injection, schedule: Q07DX002 (ip), vehicle: Klucel (hydroxypropylcellulose) (HPC), higher = larger tumour",74 % of control
same,T/C,"endpoint: median tumor weight (est.), dose: 120.0 mg/kg/injection, schedule: Q07DX002 (ip), vehicle: Klucel (hydroxypropylcellulose) (HPC), higher = larger tumour",105 % of control
COc1cccc2c1C(=O)c1c(O)c3c(c(O)c1C2=O)CC(O)(/C(C)=N/NC(=O)CCC(=O)N/N=C(\C)C1(O)Cc2c(O)c4c(c(O)c2C(OC2CC(N)C(O)C(C)O2)C1)C(=O)c1c(OC)cccc1C4=O)CC3OC1CC(N)C(O)C(C)O1 (stereo not given),T/C,"endpoint: median survival time, dose: 28.0 mg/kg/injection, schedule: Q07DX003 (sc), vehicle: water, higher = longer survival",107 % of control
same,T/C,"endpoint: median survival time, dose: 73.0 mg/kg/injection, schedule: Q07DX003 (sc), vehicle: water, higher = longer survival",100 % of control
same,T/C,"endpoint: median survival time, dose: 118.0 mg/kg/injection, schedule: Q07DX003 (sc), vehicle: water, higher = longer survival",175 % of control
same,T/C,"endpoint: median tumor weight (est.), dose: 4.0 mg/kg/injection, schedule: Q07DX002 (ip), vehicle: distilled water + Tween-80, higher = larger tumour",97 % of control
same,T/C,"endpoint: median tumor weight (est.), dose: 8.0 mg/kg/injection, schedule: Q07DX002 (ip), vehicle: distilled water + Tween-80, higher = larger tumour",90 % of control
same,T/C,"endpoint: median tumor weight (est.), dose: 8.0 mg/kg/injection, schedule: Q07DX002 (ip), vehicle: water, higher = larger tumour",104 % of control
same,T/C,"endpoint: median tumor weight (est.), dose: 9.48 mg/kg/injection, schedule: Q07DX002 (ip), vehicle: water, higher = larger tumour",9 % of control
same,T/C,"endpoint: median tumor weight (est.), dose: 14.2 mg/kg/injection, schedule: Q07DX002 (ip), vehicle: water, higher = larger tumour",2 % of control
same,T/C,"endpoint: median tumor weight (est.), dose: 16.0 mg/kg/injection, schedule: Q07DX002 (ip), vehicle: distilled water + Tween-80, higher = larger tumour",69 % of control
same,T/C,"endpoint: median tumor weight (est.), dose: 16.0 mg/kg/injection, schedule: Q07DX002 (ip), vehicle: water, higher = larger tumour",90 % of control
same,T/C,"endpoint: median tumor weight (est.), dose: 32.0 mg/kg/injection, schedule: Q07DX002 (ip), vehicle: distilled water + Tween-80, higher = larger tumour",59 % of control
same,T/C,"endpoint: median tumor weight (est.), dose: 32.0 mg/kg/injection, schedule: Q07DX002 (ip), vehicle: water, higher = larger tumour",54 % of control
same,T/C,"endpoint: median tumor weight (est.), dose: 64.0 mg/kg/injection, schedule: Q07DX002 (ip), vehicle: distilled water + Tween-80, higher = larger tumour",4 % of control
Nc1ccc2ccc(NS(=O)(=O)N3CCCCC3)cc2c1,T/C,[7],120 % of control
same,T/C,[5],99 % of control
same,T/C,[6],124 % of control
COc1cc2cc(c1Cl)N(C)C(=O)C[C@H](OC(=O)[C@H](C)N(C)C(C)=O)[C@]1(C)O[C@H]1[C@H](C)[C@@H]1C[C@@](O)(NC(=O)O1)[C@H](OC)C=C/C=C(\C)C2,T/C,"endpoint: median tumor weight (est.), dose: 0.01 mg/kg/injection, schedule: Q07DX003 (ip), vehicle: Klucel (hydroxypropylcellulose) (HPC), higher = larger tumour",99 % of control
same,T/C,"endpoint: median tumor weight (est.), dose: 0.03 mg/kg/injection, schedule: Q07DX003 (ip), vehicle: Klucel (hydroxypropylcellulose) (HPC), higher = larger tumour",114 % of control
same,T/C,"endpoint: median tumor weight (est.), dose: 0.06 mg/kg/injection, schedule: Q07DX003 (ip), vehicle: Klucel (hydroxypropylcellulose) (HPC), higher = larger tumour",84 % of control
same,T/C,"endpoint: median tumor weight (est.), dose: 0.12 mg/kg/injection, schedule: Q07DX003 (ip), vehicle: Klucel (hydroxypropylcellulose) (HPC), higher = larger tumour",73 % of control
same,T/C,"endpoint: median tumor weight (est.), dose: 0.25 mg/kg/injection, schedule: Q07DX003 (ip), vehicle: Klucel (hydroxypropylcellulose) (HPC), higher = larger tumour",164 % of control
same,T/C,"endpoint: median tumor weight (est.), dose: 0.5 mg/kg/injection, schedule: Q07DX003 (ip), vehicle: Klucel (hydroxypropylcellulose) (HPC), higher = larger tumour",67 % of control
same,T/C,"endpoint: median tumor weight (est.), dose: 30.0 micrograms/kg/injection, schedule: Q07DX003 (ip), vehicle: Klucel (hydroxypropylcellulose) (HPC), higher = larger tumour",116 % of control
same,T/C,"endpoint: median tumor weight (est.), dose: 125.0 micrograms/kg/injection, schedule: Q07DX003 (ip), vehicle: Klucel (hydroxypropylcellulose) (HPC), higher = larger tumour",120 % of control
same,T/C,"endpoint: median tumor weight (est.), dose: 250.0 micrograms/kg/injection, schedule: Q07DX003 (ip), vehicle: Klucel (hydroxypropylcellulose) (HPC), higher = larger tumour",90 % of control
same,T/C,"endpoint: median tumor weight (est.), dose: 500.0 micrograms/kg/injection, schedule: Q07DX003 (ip), vehicle: Klucel (hydroxypropylcellulose) (HPC), higher = larger tumour",75 % of control
same,T/C,"endpoint: median tumor weight (est.), dose: 1000.0 micrograms/kg/injection, schedule: Q07DX003 (ip), vehicle: Klucel (hydroxypropylcellulose) (HPC), higher = larger tumour",57 % of control
O=C1CC2(C(=O)N1CN1CCCCC1)c1ccccc1-c1ccccc12,T/C,"endpoint: median tumor weight (est.), dose: 12.5 mg/kg/injection, schedule: Q07DX002 (ip), vehicle: Klucel (hydroxypropylcellulose) (HPC), higher = larger tumour",58 % of control
same,T/C,"endpoint: median tumor weight (est.), dose: 25.0 mg/kg/injection, schedule: Q07DX002 (ip), vehicle: Klucel (hydroxypropylcellulose) (HPC), higher = larger tumour",97 % of control
same,T/C,"endpoint: median tumor weight (est.), dose: 50.0 mg/kg/injection, schedule: Q07DX002 (ip), vehicle: Klucel (hydroxypropylcellulose) (HPC), higher = larger tumour",68 % of control
same,T/C,[1],102 % of control
same,T/C,[2],101 % of control
same,T/C,"endpoint: median tumor weight (est.), dose: 400.0 mg/kg/injection, schedule: Q07DX002 (ip), vehicle: Klucel (hydroxypropylcellulose) (HPC), higher = larger tumour",81 % of control
